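Grown in 96-well plates, cells were treated for 48 hours with each compound at five concentrations. Insufficient inhibition: endpoint recorded as highest concentration tested. GI50 is the concentration that inhibits growth by half.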 Activity calls are given as the source filed them. Rule as the data show it: active = GI50 up to about 1.1 µM and inactive = higher.

Among the test systems are BT-549; CAKI-1; DLD-1; DMS-114; HCC 2998; HCT-15; LOX IMVI; LXFL 529; MCF7; MDA-MB-231; NCI-H23; SF-268; SF-295; SK-MEL-28; SN12C; SNB-19; SNB-75; SNB-78; U-251; UACC-62.
Holding throughout (experiment): NCI tumour cell line growth inhibition, 48 h

Consider `CCCCCCCCCCCCCCCCCCOP(=O)([O-])OC1CC[N+](C)(C)CC1` [PERIFOSINE], for which the GI50 in the assay with BT-549 is 12.2 µM (inactive); in the assay with CAKI-1, 3.6 µM (inactive); with DLD-1 it was 10.4 µM (inactive); with DMS-114 it was 12.5 µM (inactive); in the assay on HCC 2998, 5.16 µM (inactive); in the assay on HCT-15 it was 2.48 µM. Besides, the GI50 was 7.43 µM (inactive) with LOX IMVI; 4.03 µM (inactive) in the assay on LXFL 529; 15.7 µM (inactive) with MCF7; 6.89 µM (inactive) in the assay with MDA-MB-231; 16.1 µM (inactive) in the assay with NCI-H23; 9.89 µM (inactive) in the assay with SF-268. Besides, the GI50 was 4.98 µM (inactive) in the assay on SF-295; 17.9 µM (inactive) with SK-MEL-28; 4.6 µM (inactive) in the assay on SN12C; 9.25 µM (inactive) in the assay with SNB-19; 5.14 µM (inactive) in the assay with SNB-75; 23.4 µM (inactive) in the assay on SNB-78. Also, the GI50 in the assay with U-251 is 12.4 µM (inactive); with UACC-62, 8.39 µM (inactive).
In the case of `C[N+](C)(C)CC1CCc2ccccc2C1=O` (stereo not given), the GI50 in the assay on BT-549 is 15.5 µM (inactive); in the assay on CAKI-1, 4.97 µM (inactive); in the assay with DLD-1, 4.86 µM (inactive); in the assay with DMS-114, 13.5 µM (inactive); in the assay with HCC 2998, 15.3 µM (inactive); in the assay on HCT-15, 3.04 µM. For the same compound, the GI50 is 18.7 µM (inactive) in the assay with LOX IMVI; 2.57 µM (inactive) in the assay with LXFL 529; 1.64 µM (inactive) with MCF7; 7.13 µM (inactive) in the assay on MDA-MB-231; 13.3 µM (inactive) with NCI-H23; 17.3 µM (inactive) in the assay with SF-268. For the same compound, the GI50 in the assay with SF-295 was 34.1 µM (inactive); in the assay on SK-MEL-28, 8.89 µM (inactive); in the assay with SN12C, 8.43 µM (inactive); in the assay on SNB-19, 15.1 µM (inactive); in the assay on SNB-75, 16.7 µM (inactive); with SNB-78, 23.4 µM (inactive). The GI50 with U-251 was 5.64 µM (inactive); with UACC-62, 5.42 µM (inactive).

The values above are taken from ChEMBL document CHEMBL1201862, “PubChem BioAssay data set” (2004).
